Experimental data: paper PMC6894882 (PLoS Neglected Tropical Diseases, 2019)
Counter-ions that a name gives are not always drawn. Like-named read-outs stand apart in the source and are kept apart here. Marks after values point to notes of the source that are not given here.

Legend:
[1] = system: Norovirus (human norovirus, GT1 strain); assay: microbe, parasite or virus in culture; type: cell-based; parameters: SI90: unit not given beside the values
[2] = system: HG23
[3] = system: HeLa cells; settings: cited from earlier work
[4] = in vitro; settings: African green monkey
[5] = system: Respiratory synactial virus; assay: organism not typed; type: cell-based; parameters: SI50: unit not given beside the values
[6] = biological target: CYP1A2 (Homo sapiens, UniProt P05177); assay: biochemical
[7] = system: cytokines and chemokines; parameters: species or system mice; settings: mouse, in vivo
[8] = in vitro; settings: mouse
[9] = system: T. cruzi; settings: mouse, in vivo; cited from earlier work
[10] = in vitro; settings: human, plasma, pH 7.4
[11] = in vivo; settings: BALB/c, mouse, ip
[12] = biological target: CYP2D6 (Homo sapiens, UniProt P10635); assay: biochemical
[13] = pH 7.4
[14] = in vitro; settings: human, microsomes
[15] = system: Rift Valley fever virus; assay: microbe, parasite or virus in culture; type: cell-based; parameters: SI50: unit not given beside the values
[16] = in vitro; settings: guinea pig, microsomes
[17] = system: Plasmodium falciparum; settings: read-out: in vitro EC50; cited from earlier work
[18] = in vitro; settings: non-human primate, microsomes
[19] = in vitro; settings: human, Caco-2, pH 7.4
[20] = system: Influenza A virus H1N1; assay: microbe, parasite or virus in culture; type: cell-based; parameters: SI50: unit not given beside the values
[21] = system: Venezuelian equine encephalitis virus; assay: organism not typed; type: cell-based; parameters: SI50: unit not given beside the values
[22] = biological target: CYP2C9 (Homo sapiens, UniProt P11712); assay: biochemical
[23] = system: Yellow Fever virus; assay: microbe, parasite or virus in culture; type: cell-based; parameters: SI50: unit not given beside the values
[24] = system: Tacaribe virus; assay: microbe, parasite or virus in culture; type: cell-based; parameters: SI50: unit not given beside the values
[25] = mouse, in vivo
[26] = system: West Nile virus; assay: microbe, parasite or virus in culture; type: cell-based; parameters: SI50: unit not given beside the values
[27] = system: Human cytomegalovirus; assay: microbe, parasite or virus in culture; type: cell-based; parameters: SI50 / SI90: unit not given beside the values
[28] = in vitro; settings: mouse, microsomes
[29] = system: Zika virus; assay: microbe, parasite or virus in culture; type: cell-based; parameters: SI50: unit not given beside the values
[30] = system: Murine norovirus; assay: microbe, parasite or virus in culture; type: cell-based; parameters: SI50 / SI90: unit not given beside the values
[31] = in vitro; settings: mouse, plasma, pH 7.4
[32] = in vitro; settings: dog
[33] = system: Dengue Virus 2; assay: microbe, parasite or virus in culture; type: cell-based; parameters: SI50: unit not given beside the values
[34] = biological target: CYP2C19 (Homo sapiens, UniProt P33261); assay: biochemical
[35] = in vitro; settings: African green monkey; remark: listed apart in the source
[36] = in vivo, cited from earlier work
[37] = system: EBOV in HeLa cells; type: cell-based, Ebola virus
[38] = mouse, in vivo; cited from earlier work
[39] = system: MERS coronavirus; assay: microbe, parasite or virus in culture; type: cell-based; parameters: SI50: unit not given beside the values
[40] = physchem; settings: 20 °C, pH 7.4, aqueous buffer, kinetic from dmso stock
[41] = system: Herpes Simplex Virus 1; assay: microbe, parasite or virus in culture; type: cell-based; parameters: SI50 / SI90: unit not given beside the values
[42] = system: Hepatitis C virus; assay: microbe, parasite or virus in culture; type: cell-based; parameters: SI50 / SI90: unit not given beside the values
[43] = system: Hepatitis B virus; assay: microbe, parasite or virus in culture; type: cell-based; parameters: SI50 / SI90: unit not given beside the values
[44] = system: Poliovirus 3; assay: microbe, parasite or virus in culture; type: cell-based; parameters: SI50: unit not given beside the values
[45] = system: Ebola virus (Zaire strain); assay: microbe, parasite or virus in culture; type: cell-based; parameters: SI50: unit not given beside the values
[46] = biological target: CYP3A4 (Homo sapiens, UniProt P08684); assay: biochemical
[47] = system: Chikungunya virus; assay: microbe, parasite or virus in culture; type: cell-based; parameters: SI50: unit not given beside the values
[48] = system: Vaccinia Virus; assay: microbe, parasite or virus in culture; type: cell-based; parameters: SI50 / SI90: unit not given beside the values
[49] = system: Zika virus; assay: microbe, parasite or virus in culture; type: cell-based; parameters: SI50: unit not given beside the values; remark: listed apart in the source
[50] = in vivo; settings: both, BALB/c, mouse, ip
[51] = system: EBOV; settings: mouse, in vivo; cited from earlier work
[52] = system: EBOV; settings: in vivo; cited from earlier work
[53] = system: EBOV; settings: in vivo; cited from earlier work; remark: listed apart in the source
[54] = Hepatitis B virus, HepG2 2.2.15

Sequence of CYP2D6 (P10635 whole entry): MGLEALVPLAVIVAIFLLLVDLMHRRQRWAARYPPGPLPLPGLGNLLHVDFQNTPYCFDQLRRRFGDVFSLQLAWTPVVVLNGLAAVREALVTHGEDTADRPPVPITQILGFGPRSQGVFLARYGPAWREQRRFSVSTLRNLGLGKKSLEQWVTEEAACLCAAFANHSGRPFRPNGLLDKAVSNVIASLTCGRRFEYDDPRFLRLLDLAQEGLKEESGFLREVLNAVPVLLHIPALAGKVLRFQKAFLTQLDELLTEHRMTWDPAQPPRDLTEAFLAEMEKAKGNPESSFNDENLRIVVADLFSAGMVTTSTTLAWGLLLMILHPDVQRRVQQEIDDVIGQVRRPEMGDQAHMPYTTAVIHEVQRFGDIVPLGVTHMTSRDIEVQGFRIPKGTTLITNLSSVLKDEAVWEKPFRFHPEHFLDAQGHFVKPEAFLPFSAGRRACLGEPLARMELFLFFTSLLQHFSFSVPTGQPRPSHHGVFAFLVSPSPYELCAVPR
Sequence of CYP2C9 (P11712 whole entry): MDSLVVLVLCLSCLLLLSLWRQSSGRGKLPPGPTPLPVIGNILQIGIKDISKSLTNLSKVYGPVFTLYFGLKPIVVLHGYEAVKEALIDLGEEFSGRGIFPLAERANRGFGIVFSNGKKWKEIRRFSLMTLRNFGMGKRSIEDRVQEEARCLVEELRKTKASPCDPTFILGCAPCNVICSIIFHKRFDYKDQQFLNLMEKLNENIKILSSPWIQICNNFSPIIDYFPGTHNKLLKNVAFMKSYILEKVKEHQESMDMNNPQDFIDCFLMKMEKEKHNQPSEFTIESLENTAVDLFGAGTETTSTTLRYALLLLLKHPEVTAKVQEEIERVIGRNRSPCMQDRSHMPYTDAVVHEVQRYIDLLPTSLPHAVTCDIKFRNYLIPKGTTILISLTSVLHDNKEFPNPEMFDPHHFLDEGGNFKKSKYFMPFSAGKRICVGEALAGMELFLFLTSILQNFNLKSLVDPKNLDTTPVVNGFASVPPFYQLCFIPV
Sequence of CYP2C19 (P33261 whole entry): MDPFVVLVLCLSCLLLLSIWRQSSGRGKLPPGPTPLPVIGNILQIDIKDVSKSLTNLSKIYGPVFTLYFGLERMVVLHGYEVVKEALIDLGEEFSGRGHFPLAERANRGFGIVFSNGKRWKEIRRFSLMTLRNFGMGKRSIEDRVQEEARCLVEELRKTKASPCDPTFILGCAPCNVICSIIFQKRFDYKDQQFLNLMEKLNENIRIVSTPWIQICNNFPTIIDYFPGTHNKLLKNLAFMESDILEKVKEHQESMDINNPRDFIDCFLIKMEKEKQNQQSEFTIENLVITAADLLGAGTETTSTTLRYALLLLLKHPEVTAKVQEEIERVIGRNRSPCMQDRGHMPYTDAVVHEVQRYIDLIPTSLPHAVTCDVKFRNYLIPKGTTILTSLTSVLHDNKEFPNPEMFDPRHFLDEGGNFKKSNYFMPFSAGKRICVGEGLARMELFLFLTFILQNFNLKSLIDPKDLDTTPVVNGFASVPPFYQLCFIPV
Sequence of CYP3A4 (P08684 whole entry): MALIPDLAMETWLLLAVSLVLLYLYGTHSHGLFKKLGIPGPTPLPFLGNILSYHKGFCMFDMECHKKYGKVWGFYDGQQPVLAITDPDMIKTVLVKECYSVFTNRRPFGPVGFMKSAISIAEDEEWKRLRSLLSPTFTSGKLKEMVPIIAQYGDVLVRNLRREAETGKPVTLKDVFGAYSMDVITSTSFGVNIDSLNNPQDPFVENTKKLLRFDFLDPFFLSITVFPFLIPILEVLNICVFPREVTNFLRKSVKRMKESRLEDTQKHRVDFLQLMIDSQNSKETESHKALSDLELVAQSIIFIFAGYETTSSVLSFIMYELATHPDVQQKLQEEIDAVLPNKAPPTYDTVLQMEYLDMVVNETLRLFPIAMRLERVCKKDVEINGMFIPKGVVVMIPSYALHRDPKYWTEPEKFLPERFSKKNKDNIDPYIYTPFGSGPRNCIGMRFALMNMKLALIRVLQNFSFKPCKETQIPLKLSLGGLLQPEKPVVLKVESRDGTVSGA
Sequence of CYP1A2 (P05177 whole entry): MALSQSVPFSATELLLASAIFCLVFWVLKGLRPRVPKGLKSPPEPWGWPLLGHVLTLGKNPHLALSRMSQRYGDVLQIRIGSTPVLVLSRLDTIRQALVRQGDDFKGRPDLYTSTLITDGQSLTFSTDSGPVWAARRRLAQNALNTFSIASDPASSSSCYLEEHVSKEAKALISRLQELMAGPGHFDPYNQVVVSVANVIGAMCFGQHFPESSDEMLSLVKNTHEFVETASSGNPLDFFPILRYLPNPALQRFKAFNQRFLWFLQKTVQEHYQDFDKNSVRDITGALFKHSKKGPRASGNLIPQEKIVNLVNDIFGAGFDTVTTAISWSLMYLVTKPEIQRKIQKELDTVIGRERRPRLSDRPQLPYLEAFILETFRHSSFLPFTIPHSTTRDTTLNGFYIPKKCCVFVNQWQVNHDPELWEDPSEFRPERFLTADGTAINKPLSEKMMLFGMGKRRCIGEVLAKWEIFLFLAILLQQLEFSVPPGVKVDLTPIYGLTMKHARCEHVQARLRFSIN

C[C@@]1(O)[C@H](O)[C@@H](CO)O[C@H]1n1ccc(N)nc1=O [2’C-methyl cytidine]
EC50 ([1]; read-out: EC50): 6.5 µM | CC50 [2]: > 300 µM

COc1ccc2nc3cc(Cl)ccc3c(Nc3cc(CN4CCCC4)c(O)c(CN4CCCC4)c3)c2n1 [Pyronaridine, 4-[(7-Chloro-2-methoxybenzo[b][1, 5]naphthyridin-10-yl)amino]-2,6-bis(1-pyrrolidinylmethyl)phenol phosphate (1:4)]
CC50 [3]: 3.1 µM | CC50 [4]: 7.5 µM | SI50 [5]: 0 | EC50 ([5]; MA104): > 7.5 µM | IC50 [6]: > 50 µM | IFN-α/β concentrations [7]: below the level of detection | cytokine/chemokine levels over vehicle or naïve controls [7]: did not elicit a statistically significant increase | CC50 [8]: > 40 µM | efficacy rate [9]: 85% | fraction unbound [10]: 0.049 | AUC(0-t) ([11]; female, 5 mg/kg): 257 ng·h/mL | Cmax ([11]; female, 5 mg/kg): 54 ng/mL | Tmax ([11]; female, 5 mg/kg): 4.98 min | AUC(0-t) ([11]; female, 25 mg/kg): 956 ng·h/mL | Cmax ([11]; female, 25 mg/kg): 160 ng/mL | AUC(0-t) ([11]; male, 5 mg/kg): 192 ng·h/mL | Cmax ([11]; male, 5 mg/kg): 44.4 ng/mL | AUC(0-t) ([11]; male, 25 mg/kg): 713 ng·h/mL | Cmax ([11]; male, 25 mg/kg): 115 ng/mL | AUC(0-inf) ([11]; male, 75 mg/kg): 33900 ng·h/mL | AUC(0-t) ([11]; male, 75 mg/kg): 33000 ng·h/mL | Cmax ([11]; male, 75 mg/kg): 982 ng/mL | half-life ([11]; male, 75 mg/kg): 6.08 days | IC50 [12]: 2230 nM | abundance relative to parent drug (Mouse) [13]: 100%* | microsomal CLint [14]: 4.1 µL/min/mg | SI50 [15]: 1 | EC50 ([15]; Rift Valley fever virus, Vero 76): 3.2 µM | half-life [16]: 44.4 min | microsomal CLint [16]: 15.6 µL/min/mg | EC50 [17]: 13.5 nM | half-life [18]: 140 min | microsomal CLint [18]: 4.9 µL/min/mg | Papp A→B [19]: 6.46 ×10⁻⁶ cm/s | Papp B→A [19]: 4.8 ×10⁻⁶ cm/s | efflux ratio [19]: 0.74 | SI50 [20]: 1 | EC50 ([20]; Influenza A virus, H1N1, MDCK): 3.2 µM | SI50 [21]: 1.8 | EC50 ([21]; Vero 76): 1800 nM | IC50 [22]: > 50 µM | SI50 [23]: 1 | EC50 ([23]; Yellow fever virus, Vero 76): 3.2 µM | SI50 [24]: 0 | EC50 ([24]; Mammarenavirus tacaribeense, Vero): > 3.2 µM | clinical observations in PK study [25]: ruffled fur and eye squinting | time of peak plasma levels ([25]; ip): 0.25 and 1 | SI90 [1]: 10 | EC50 ([1]; Norovirus, GT1, HG23): 3.5 µM | EC90 ([1]; Norovirus, GT1, HG23): 9.7 µM | SI50 [26]: 0 | EC50 ([26]; West Nile virus, Vero 76): > 24 µM | SI50 [27]: <3 | SI90 [27]: <3 | EC50 ([27]; Human betaherpesvirus 5, HFF): > 1200 nM | EC90 ([27]; Human betaherpesvirus 5, HFF): > 1200 nM | half-life [28]: 173 min | microsomal CLint [28]: 4 µL/min/mg | SI50 [29]: 1 | EC50 ([29]; Zika virus, Huh-7): 3.2 µM | SI50 [30]: 1 | SI90 [30]: 1 | EC50 ([30]; Norwalk virus, RAW267.4): > 40 µM | EC90 ([30]; Norwalk virus, RAW267.4): > 40 µM | fraction unbound [31]: 0.035 | CC50 [32]: 3.2 µM | SI50 [33]: 1 | EC50 ([33]; Dengue virus, Vero 76): 3.2 µM | IC50 [34]: > 50 µM | CC50 ([35]; CC50): 3.2 µM | CC50 ([35]; approximate CC50): ~3 µM | t1/2 ([36]; human, po, 400 mg): 10 days | volume of distribution ([36]; human, po, 400 mg): 41.2 L/kg | half-life elimination in whole blood ([36]; human): approximately 17 d | t1/2 in humans ([36]; human): 195 to 251 h | total radioactive half-life [36]: 33.5 days | SI [37]: ~ 3 | LD50 [38]: 1342 mg/kg | SI50 [39]: 1 | EC50 ([39]; Middle East respiratory syndrome-related coronavirus, Vero 76): 3.2 µM | solubility [40]: 168 µM | SI50 [41]: <1 | SI90 [41]: <1 | EC50 ([41]; Human alphaherpesvirus 1, HFF): > 6 µM | EC90 ([41]; Human alphaherpesvirus 1, HFF): > 6 µM | SI50 [42]: 1 | SI90 [42]: <1 | EC50 ([42]; Hepatitis C virus, Huh-7): 780 nM | EC90 ([42]; Hepatitis C virus, Huh-7): 1710 nM | SI50 [43]: <1 | SI90 [43]: <1 | EC50 [43, 54]: 4.52 µM | EC90 [43, 54]: > 100 µM | SI50 [44]: 1 | EC50 ([44]; Enterovirus C, Vero 76): 3.2 µM | SI50 [45]: 0 | anti-EBOV activity (Zaire strain) [45]: lack of antiviral activity | EC50 ([45]; Zaire ebolavirus, Vero 76): > 1300 nM | IC50 [46]: 42.9 µM | SI50 [47]: 1 | EC50 ([47]; Chikungunya virus, Vero 76): 3.2 µM | SI50 [48]: <3 | SI90 [48]: <3 | EC50 ([48]; Orthopoxvirus vaccinia, HFF): > 1200 nM | EC90 ([48]; Orthopoxvirus vaccinia, HFF): > 1200 nM | SI50 [49]: 1 | EC50 ([49]; Zika virus, Vero 76): 3.2 µM | MTD [50]: 100 mg/kg

CCN(CC)CCOc1ccc2c(c1)C(=O)c1cc(OCCN(CC)CC)ccc1-2 [Tilorone, tilorone dihydrochloride]
IFN-α/β levels [7]: below the LLOD | cytokine/chemokine protein concentrations over vehicle-treated and naïve mice [7]: statistically significant increase in observed protein concentrations

CCN(CC)CCCC(C)Nc1ccnc2cc(Cl)ccc12 (stereo not shown) [chloroquine]
survival rate [51]: 90% | activity in guinea pig studies [52]: inactive

B1: mAb114 (antibody, chains of the INN, looked up, V domains shown)
VH: EVQLVESGGGLIQPGGSLRLSCAASGFALRMYDMHWVRQTIDKRLEWVSAVGPSGDTTYADSVKGRFAVSRENAKNSLSLQMNSLTAGDTAIYYCVRSDRGVAGLFDSWGQGILVTVSS
VL: DIQMTQSPSSLSASVGDRITITCRASQAFDNYVAWYQQRPGKVPKLLISAASALHAGVPSRFSGSGSGTHFTLTISSLQPEDVATYYCQNYNSAPLTFGGGTKVEIK
survival rates in clinical trial [53]: higher survival rates than ZMapp and remdesivir
